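Interpolation was linear, between the two tested concentrations surrounding the appropriate level; five concentrations were tested over 48 hours in 96-well plates. Abbreviation: GI50, concentration required for 50% inhibition of growth. Definition used: TGI = concentration required for complete inhibition of growth.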
Key:
Test in all cases: inhibition of tumour cell growth, NCI panel, 48 h
SF-268 CNS = system: SF-268 CNS
MALME-3M melanoma = system: MALME-3M melanoma
SK-OV-3 ovarian = system: SK-OV-3 ovarian
HT29 colon = system: HT29 colon
NCI-H226 lung = system: NCI-H226 lung
HL-60(TB) leukemia = system: HL-60(TB) leukemia
OVCAR-8 ovarian = system: OVCAR-8 ovarian
M14 melanoma = system: M14 melanoma
SW-620 colon = system: SW-620 colon
SF-539 CNS = system: SF-539 CNS
HOP-62 NSCLC = system: HOP-62 NSCLC
TK-10 renal = system: TK-10 renal
OVCAR-3 ovarian = system: OVCAR-3 ovarian
SNB-19 CNS = system: SNB-19 CNS
MCF7 breast = system: MCF7 breast
A549 NSCLC = system: A549 NSCLC
RPMI-8226 leukemia = system: RPMI-8226 leukemia
HCC-2998 colon = system: HCC-2998 colon
786-0 renal = system: 786-0 renal
SK-MEL-2 melanoma = system: SK-MEL-2 melanoma
KM12 colon = system: KM12 colon
UACC-257 melanoma = system: UACC-257 melanoma
HOP-92 NSCLC = system: HOP-92 NSCLC
T-47D breast = system: T-47D breast
NCI-H460 lung = system: NCI-H460 lung
CAKI-1 renal = system: CAKI-1 renal
OVCAR-5 ovarian = system: OVCAR-5 ovarian
SN12C renal = system: SN12C renal
K-562 leukemia = system: K-562 leukemia
COLO 205 colon = system: COLO 205 colon
NCI-H522 lung = system: NCI-H522 lung
MOLT-4 leukemia = system: MOLT-4 leukemia
ACHN renal = system: ACHN renal
MDA-MB-435 = system: MDA-MB-435
SK-MEL-28 melanoma = system: SK-MEL-28 melanoma
U251 CNS = system: U251 CNS
HCT-116 colon = system: HCT-116 colon
DU-145 prostate = system: DU-145 prostate
SR leukemia = system: SR leukemia
SK-MEL-5 melanoma = system: SK-MEL-5 melanoma
SNB-75 CNS = system: SNB-75 CNS
UACC-62 melanoma = system: UACC-62 melanoma
NCI/ADR-RES ovarian = system: NCI/ADR-RES ovarian
IGROV1 ovarian = system: IGROV1 ovarian
A498 renal = system: A498 renal
BT-549 breast = system: BT-549 breast
RXF 393 renal = system: RXF 393 renal
LOX IMVI melanoma = system: LOX IMVI melanoma
SF-295 CNS = system: SF-295 CNS
UO-31 renal = system: UO-31 renal
HS 578T breast = system: HS 578T breast
PC-3 prostate = system: PC-3 prostate
OVCAR-4 ovarian = system: OVCAR-4 ovarian
HCT-15 colon = system: HCT-15 colon
MDA-MB-231 breast = system: MDA-MB-231 breast
CCRF-CEM leukemia = system: CCRF-CEM leukemia
NCI-H23 lung = system: NCI-H23 lung

With `FCc1ncc(-c2ccc(C(F)(F)F)cc2)c(NC2CCCCCC2)n1` the GI50 (SF-268 CNS) was > 10 µM, the TGI (SF-268 CNS) was > 10 µM and the GI50 (MALME-3M melanoma) was > 10 µM. For the same compound, the TGI (MALME-3M melanoma) was > 10 µM, the GI50 (SK-OV-3 ovarian) was > 10 µM and the TGI (SK-OV-3 ovarian) was > 10 µM. For the same compound, the GI50 (HT29 colon) was > 10 µM, the TGI (HT29 colon) was > 10 µM and the GI50 (NCI-H226 lung) was > 10 µM. The TGI (NCI-H226 lung) was > 10 µM, the GI50 (HL-60(TB) leukemia) was > 10 µM and the TGI (HL-60(TB) leukemia) was > 10 µM. The GI50 (OVCAR-8 ovarian) was > 10 µM, the TGI (OVCAR-8 ovarian) was > 10 µM and the GI50 (M14 melanoma) was > 10 µM. The TGI (M14 melanoma) was > 10 µM, the GI50 (SW-620 colon) was > 10 µM and the TGI (SW-620 colon) was > 10 µM. For the same compound, the GI50 (SF-539 CNS) was > 10 µM, the TGI (SF-539 CNS) was > 10 µM and the GI50 (HOP-62 NSCLC) was > 10 µM. The TGI (HOP-62 NSCLC) was > 10 µM, the GI50 (TK-10 renal) was > 10 µM and the TGI (TK-10 renal) was > 10 µM. For the same compound, the GI50 (OVCAR-3 ovarian) was > 10 µM, the TGI (OVCAR-3 ovarian) was > 10 µM and the GI50 (SNB-19 CNS) was > 10 µM. For the same compound, the TGI (SNB-19 CNS) was > 10 µM, the GI50 (MCF7 breast) was > 10 µM and the TGI (MCF7 breast) was > 10 µM. The GI50 (A549 NSCLC) was > 10 µM, the TGI (A549 NSCLC) was > 10 µM and the GI50 (RPMI-8226 leukemia) was > 10 µM. For the same compound, the TGI (RPMI-8226 leukemia) was > 10 µM, the GI50 (HCC-2998 colon) was > 10 µM and the TGI (HCC-2998 colon) was > 10 µM. The GI50 (786-0 renal) was > 10 µM, the TGI (786-0 renal) was > 10 µM and the GI50 (SK-MEL-2 melanoma) was > 10 µM. The TGI (SK-MEL-2 melanoma) was > 10 µM, the GI50 (KM12 colon) was > 10 µM and the TGI (KM12 colon) was > 10 µM. For the same compound, the GI50 (UACC-257 melanoma) was > 10 µM, the TGI (UACC-257 melanoma) was > 10 µM and the GI50 (HOP-92 NSCLC) was 5.29 µM. For the same compound, the TGI (HOP-92 NSCLC) was > 10 µM, the GI50 (T-47D breast) was > 10 µM and the TGI (T-47D breast) was > 10 µM. The GI50 (NCI-H460 lung) was > 10 µM, the TGI (NCI-H460 lung) was > 10 µM and the GI50 (CAKI-1 renal) was > 10 µM. For the same compound, the TGI (CAKI-1 renal) was > 10 µM, the GI50 (OVCAR-5 ovarian) was > 10 µM and the TGI (OVCAR-5 ovarian) was > 10 µM. For the same compound, the GI50 (SN12C renal) was > 10 µM, the TGI (SN12C renal) was > 10 µM and the GI50 (K-562 leukemia) was > 10 µM. For the same compound, the TGI (K-562 leukemia) was > 10 µM, the GI50 (COLO 205 colon) was > 10 µM and the TGI (COLO 205 colon) was > 10 µM. For the same compound, the GI50 (NCI-H522 lung) was > 10 µM, the TGI (NCI-H522 lung) was > 10 µM and the GI50 (MOLT-4 leukemia) was > 10 µM. For the same compound, the TGI (MOLT-4 leukemia) was > 10 µM, the GI50 (ACHN renal) was > 10 µM and the TGI (ACHN renal) was > 10 µM. The GI50 (MDA-MB-435) was > 10 µM, the TGI (MDA-MB-435) was > 10 µM and the GI50 (SK-MEL-28 melanoma) was > 10 µM. For the same compound, the TGI (SK-MEL-28 melanoma) was > 10 µM, the GI50 (U251 CNS) was > 10 µM and the TGI (U251 CNS) was > 10 µM. For the same compound, the GI50 (HCT-116 colon) was > 10 µM, the TGI (HCT-116 colon) was > 10 µM and the GI50 (DU-145 prostate) was > 10 µM. For the same compound, the TGI (DU-145 prostate) was > 10 µM, the GI50 (SR leukemia) was > 10 µM and the TGI (SR leukemia) was > 10 µM. The GI50 (SK-MEL-5 melanoma) was > 10 µM, the TGI (SK-MEL-5 melanoma) was > 10 µM and the GI50 (SNB-75 CNS) was > 10 µM. The TGI (SNB-75 CNS) was > 10 µM, the GI50 (UACC-62 melanoma) was > 10 µM and the TGI (UACC-62 melanoma) was > 10 µM. The GI50 (NCI/ADR-RES ovarian) was > 10 µM, the TGI (NCI/ADR-RES ovarian) was > 10 µM and the GI50 (IGROV1 ovarian) was > 10 µM. For the same compound, the TGI (IGROV1 ovarian) was > 10 µM, the GI50 (A498 renal) was > 10 µM and the TGI (A498 renal) was > 10 µM. The GI50 (BT-549 breast) was > 10 µM, the TGI (BT-549 breast) was > 10 µM and the GI50 (RXF 393 renal) was > 10 µM. For the same compound, the TGI (RXF 393 renal) was > 10 µM, the GI50 (LOX IMVI melanoma) was > 10 µM and the TGI (LOX IMVI melanoma) was > 10 µM. For the same compound, the GI50 (SF-295 CNS) was > 10 µM, the TGI (SF-295 CNS) was > 10 µM and the GI50 (UO-31 renal) was > 10 µM. The TGI (UO-31 renal) was > 10 µM, the GI50 (HS 578T breast) was > 10 µM and the TGI (HS 578T breast) was > 10 µM. The GI50 (PC-3 prostate) was > 10 µM, the TGI (PC-3 prostate) was > 10 µM and the GI50 (OVCAR-4 ovarian) was > 10 µM. The TGI (OVCAR-4 ovarian) was > 10 µM, the GI50 (HCT-15 colon) was > 10 µM and the TGI (HCT-15 colon) was > 10 µM. The GI50 (MDA-MB-231 breast) was > 10 µM, the TGI (MDA-MB-231 breast) was > 10 µM and the GI50 (CCRF-CEM leukemia) was > 10 µM. The TGI (CCRF-CEM leukemia) was > 10 µM, the GI50 (NCI-H23 lung) was > 10 µM and the TGI (NCI-H23 lung) was > 10 µM.

From PubChem BioAssay (NCI)
